Results as given in ChEMBL document CHEMBL3232730, “Design, synthesis and bioevaluation of N-trisubstituted pyrimidine derivatives as potent aurora A kinase inhibitors” (Eur J Med Chem, 2014).

How the values were obtained:
[1] = Cell cycle arrest in human CNE2 cells assessed as accumulation at polyploid period at 1 uM after 24 hrs by propidium iodide staining-based flow cytometric analysis (reference value: […]); assay type: functional; conditions: CNE-2
MDA-MB-231 = experiment: Antiproliferative activity against human MDA-MB-231 cells assessed as cell viability after 72 hrs by CCK8 assay; assay type: functional, cell-based; conditions: Homo sapiens, MDA-MB-231, 72 h; read-out: IC50
A-431 = experiment: Antiproliferative activity against human A431 cells assessed as cell viability after 72 hrs by CCK8 assay; assay type: functional, cell-based; conditions: Homo sapiens, A-431, 72 h; read-out: IC50
HeLa = experiment: Antiproliferative activity against human HeLa cells assessed as cell viability after 72 hrs by CCK8 assay; assay type: functional, cell-based; conditions: Homo sapiens, HeLa, 72 h; read-out: IC50
[2] = Cell cycle arrest in human CNE2 cells assessed as accumulation at G2/M phase at 1 uM after 24 hrs by propidium iodide staining-based flow cytometric analysis (reference value: 38.2%); assay type: functional; conditions: CNE-2
[3] = Antiproliferative activity against human SKBR3 cells assessed as cell viability after 72 hrs by CCK8 assay; assay type: functional, cell-based, SK-BR-3; conditions: Homo sapiens, SK-BR-3, 72 h; read-out: IC50
U-937 = experiment: Antiproliferative activity against human U937 cells assessed as cell viability after 72 hrs by CCK8 assay; assay type: functional, cell-based; conditions: Homo sapiens, U-937, 72 h; read-out: IC50
HCT-116 = experiment: Antiproliferative activity against human HCT116 cells assessed as cell viability after 72 hrs by CCK8 assay; assay type: functional, cell-based; conditions: Homo sapiens, HCT-116, 72 h; read-out: IC50
K562 = experiment: Antiproliferative activity against human K562 cells assessed as cell viability after 72 hrs by CCK8 assay; assay type: functional, cell-based; conditions: Homo sapiens, K562, 72 h; read-out: IC50
PC-3 = experiment: Antiproliferative activity against human PC3 cells assessed as cell viability after 72 hrs by CCK8 assay; assay type: functional, cell-based; conditions: Homo sapiens, PC-3, 72 h; read-out: IC50
NCI-N87 = experiment: Antiproliferative activity against human NCI-N87 cells assessed as cell viability after 72 hrs by CCK8 assay; assay type: functional, cell-based; conditions: Homo sapiens, NCI-N87, 72 h; read-out: IC50
[4] = Cell cycle arrest in human CNE2 cells assessed as accumulation at G1 phase at 1 uM after 24 hrs by propidium iodide staining-based flow cytometric analysis (reference value: 52.5%); assay type: functional; conditions: CNE-2
DU-145 = experiment: Antiproliferative activity against human DU145 cells assessed as cell viability after 72 hrs by CCK8 assay; assay type: functional, cell-based; conditions: Homo sapiens, DU-145, 72 h; read-out: IC50
[5] = Antiproliferative activity against human MOLT4 cells assessed as cell viability after 72 hrs by CCK8 assay; assay type: functional, cell-based, MOLT-4; conditions: Homo sapiens, MOLT-4, 72 h; read-out: IC50
[6] = Antiproliferative activity against human PANC1 cells assessed as cell viability after 72 hrs by CCK8 assay; assay type: functional, cell-based; conditions: PANC-1, 72 h
Aurora kinase A = molecular target: T1, Aurora kinase A (Homo sapiens, UniProt O14965); experiment: Inhibition of Aurora A (unknown origin) using FAM-labeled peptide as substrate preincubated for 10 mins followed by substrate addition measured after 60 mins
T1 sequence (O14965 whole entry): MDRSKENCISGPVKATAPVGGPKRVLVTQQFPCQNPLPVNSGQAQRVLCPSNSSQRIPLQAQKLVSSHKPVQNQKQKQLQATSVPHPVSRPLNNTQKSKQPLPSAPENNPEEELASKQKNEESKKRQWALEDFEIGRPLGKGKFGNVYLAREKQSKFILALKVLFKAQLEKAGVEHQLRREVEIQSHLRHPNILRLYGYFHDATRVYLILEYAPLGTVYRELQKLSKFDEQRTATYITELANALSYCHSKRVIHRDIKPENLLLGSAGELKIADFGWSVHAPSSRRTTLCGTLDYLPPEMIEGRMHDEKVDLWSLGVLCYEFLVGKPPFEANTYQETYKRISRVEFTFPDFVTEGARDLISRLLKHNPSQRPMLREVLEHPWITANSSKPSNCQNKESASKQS

A549 = experiment: Antiproliferative activity against human A549 cells assessed as cell viability after 72 hrs by CCK8 assay; assay type: functional, cell-based; conditions: A549, 72 h
MCF7 = experiment: Antiproliferative activity against human MCF7 cells assessed as cell viability after 72 hrs by CCK8 assay; assay type: functional, cell-based; conditions: Homo sapiens, MCF7, 72 h; read-out: IC50
HL-60 = experiment: Antiproliferative activity against human HL60 cells assessed as cell viability after 72 hrs by CCK8 assay; assay type: functional, cell-based; conditions: Homo sapiens, HL-60, 72 h; read-out: IC50
[7] = Cell cycle arrest in human CNE2 cells assessed as accumulation at S phase at 1 uM after 24 hrs by propidium iodide staining-based flow cytometric analysis (reference value: 14.7%); assay type: functional; conditions: CNE-2
[8] = Cell cycle arrest in human CNE2 cells assessed as accumulation at G1 phase at 0.1 uM after 24 hrs by propidium iodide staining-based flow cytometric analysis (reference value: […]); assay type: functional; conditions: CNE-2
[9] = Cell cycle arrest in human CNE2 cells assessed as accumulation at G2/M phase at 0.1 uM after 24 hrs by propidium iodide staining-based flow cytometric analysis (reference value: 24.5%); assay type: functional; conditions: CNE-2
[10] = Cell cycle arrest in human CNE2 cells assessed as accumulation at polyploid period at 0.01 uM after 24 hrs by propidium iodide staining-based flow cytometric analysis (reference value: […]); assay type: functional; conditions: CNE-2
[11] = Cell cycle arrest in human CNE2 cells assessed as accumulation at G2/M phase after 24 hrs by propidium iodide staining-based flow cytometric analysis; assay type: functional; conditions: CNE-2
[12] = Cell cycle arrest in human CNE2 cells assessed as accumulation at S phase at 0.01 uM after 24 hrs by propidium iodide staining-based flow cytometric analysis (reference value: 14.9%); assay type: functional; conditions: CNE-2
[13] = Cell cycle arrest in human CNE2 cells assessed as accumulation at polyploid period at 0.1 uM after 24 hrs by propidium iodide staining-based flow cytometric analysis (reference value: […]%); assay type: functional; conditions: CNE-2
[14] = Cell cycle arrest in human CNE2 cells assessed as accumulation at G2/M phase at 0.01 uM after 24 hrs by propidium iodide staining-based flow cytometric analysis (reference value: 31%); assay type: functional; conditions: CNE-2
[15] = Cell cycle arrest in human CNE2 cells assessed as accumulation at S phase at 0.1 uM after 24 hrs by propidium iodide staining-based flow cytometric analysis (reference value: 13.1%); assay type: functional; conditions: CNE-2
[16] = Cell cycle arrest in human CNE2 cells assessed as accumulation at G1 phase at 0.01 uM after 24 hrs by propidium iodide staining-based flow cytometric analysis (reference value: 52.5%); assay type: functional; conditions: CNE-2

Row | IC50 (MDA-MB-231) [nM] | IC50 (A-431) [nM] | IC50 (HeLa) [nM] | IC50 (U-937) [nM] | IC50 (HCT-116) [nM] | IC50 (K562) [nM] | IC50 (PC-3) [nM] | IC50 (DU-145) [nM] | IC50 (Aurora kinase A) [nM] | IC50 (A549) [nM] | IC50 (MCF7) [nM] | IC50 (HL-60) [nM] | SMILES | Activity [1] [%] | Activity [2] [%] | IC50 [3] [nM] | IC50 (NCI-N87) [nM] | Activity [4] [%] | IC50 [5] [nM] | IC50 [6] [nM] | Activity [7] [%] | also measured
1 | 571 | 832 | 1890 | 447 | 1040 | 537 | 1090 | 611 | 25 | 1590 | 938 | 750 | COC(=O)c1ccc(Nc2nc(Nc3cc(C)[nH]n3)cc(N3CCOCC3)n2)cc1 | 4 | 35.7 | 3180 | 3230 | 52.9 | 302 | 1590 | 7.1 | 
2 | 56.4 | 87.5 | 425 | 21.7 | 736 | 97.2 | 573 | 3090 | 10 | 723 | 436 | 131 | Cc1cc(Nc2cc(N3CCN(C)CC3)nc(Nc3cccc(Cl)c3)n2)n[nH]1 | 3.9 | 90.5 | 2290 | 1770 | 3.3 | 20.1 | 351 | 1.7 | 
3 | 240 | 332 | 546 | 126 | 923 | 509 | 1080 | 2650 | 22 | 1690 | 933 | 397 | COc1cccc(Nc2nc(Nc3cc(C)[nH]n3)cc(N3CCN(C)CC3)n2)c1 | 2.4 | 92.5 | 11300 | 7190 | 3.2 | 192 | 693 | 1.7 | Activity [8]: 57.2%; Activity [9]: 32.2%; Activity [10]: 4.6%; Activity [11]: Dose-dependent effect; Activity [12]: 8.1%; Activity [13]: 4%; Activity [14]: 26.1%; Activity [15]: 6.9%; Activity [16]: 61.7%
4 | 359 | 532 | 1270 | 119 | 672 | 359 | 1500 | 798 | 46 | 1830 | 1780 | 203 | COC(=O)c1ccc(Nc2nc(Nc3cc(C)[nH]n3)cc(N3CCN(C)CC3)n2)cc1 | 11.2 | 84.3 | 8650 | 17800 | 1.7 | 161 | 1080 | 2.2 | 
5 | 162 | 440 | 985 | 103 | 1660 | 307 | 1360 | 499 | 22 | 1220 | 1320 | 181 | Cc1cc(Nc2cc(N3CCN(C)CC3)nc(Nc3ccc(C(=O)OC(C)C)cc3)n2)n[nH]1 | 7 | 89 | 4020 | 6320 | 1.9 | 94.1 | 1320 | 1.7 | 
